The values below come from ChEMBL document CHEMBL4330116, “Harzianoic acids A and B, new natural scaffolds with inhibitory effects against hepatitis C virus” (Bioorg Med Chem, 2019).

Series [1] in a line: Cytotoxicity against human Huh7.5 cells after 72 hrs by MTT assay. In kind it is cell-based. Background: Formazan colour is commonly taken as a measure of viable cells.
Series [2] can be described thus: Selectivity index, ratio of CC50 for human Huh7.5 cells to EC50 for antiviral activity against HCV genotype 2a JFH/JC1 infected in human Huh7.5 cells. In kind it is toxicity, cell-based. As to conditions: read-out: Ratio CC50/EC50.
For series [3], the system named is Hepatitis C virus. Briefly: Antiviral activity against HCV pseudoparticles infected in human Huh7.5 cells infected with HCV pseudoparticles expressed in 293T cells with plasmid encoding HCV E1, E2, envelope and Vpr deficient HIV vector carrying luciferase reporter gene inserted into Nef position assessed as inhibition of pseudoparticle entry after 72 hrs by luciferase reporter gene assay. In kind it is functional, organism-based, Hepacivirus hominis. As to conditions: for inhibition: Hepacivirus hominis.

The target in series [4] is T1, CD81 antigen (Homo sapiens, UniProt P60033).
T1 sequence (P60033 whole entry): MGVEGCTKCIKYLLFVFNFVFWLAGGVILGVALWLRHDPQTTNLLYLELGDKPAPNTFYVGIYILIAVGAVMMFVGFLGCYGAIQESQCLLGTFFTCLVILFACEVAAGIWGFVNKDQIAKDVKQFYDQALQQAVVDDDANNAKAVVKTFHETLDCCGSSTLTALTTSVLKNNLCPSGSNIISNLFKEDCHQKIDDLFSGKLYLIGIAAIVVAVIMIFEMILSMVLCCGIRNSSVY
Nature of the series: Binding affinity to CD81 (unknown origin) by surface plasmon resonance assay. (SPR reads the build-up and loss of mass on a sensor chip optically.)

Series [5] concerns the target T2, CD81 antigen (Homo sapiens) (UniProt P60033).
T2 sequence (whole entry): T1 sequence (P60033 whole entry)
Nature of the series: Binding affinity to CD81 (unknown origin) assessed as association rate constant by surface plasmon resonance assay.

The subject of series [6] is Hepatitis C virus. Briefly: Antiviral activity against HCV genotype 2a JFH/JC1 infected in human Huh7.5 cells assessed as inhibition of viral RNA replication after 72 hrs by qRT-PCR analysis. As to conditions: subtype 2a JFH/JC1, Huh7.5, 72 h. In kind it is functional, organism-based, Hepacivirus hominis.
For series [7], the target named is T2, CD81 antigen (Homo sapiens). Briefly: Binding affinity to CD81 (unknown origin) assessed as disruption of interaction between CD81 the HCV envelope protein E2 at 5 uM by surface plasmon resonance assay relative to untreated control.

As for `CCC[C@H](NC(=O)[C@@H]1[C@H]2CCC[C@H]2CN1C(=O)[C@@H](NC(=O)[C@@H](NC(=O)c1cnccn1)C1CCCCC1)C(C)(C)C)C(=O)C(=O)NC1CC1` [TELAPREVIR], the midpoint of cytotoxicity in series [1], the CC50 at 72 h, lay at 26.5 µM. In series [2], the selectivity ratio came out at 491.
Regarding `C/C(=C\CC[C@]1(C)[C@@H](C(=O)O)C[C@H]1[C@](C)(O)C(=O)O)C(=O)O`, in series [3], the IC50 – broadly, the concentration that inhibits the measured activity by half – was found to be 42.9 µM and the inhibition entry was “Dose-dependent effect”. For the same compound, the Kd (commonly the constant that tells how readily two partners part at equilibrium) in series [4] stood at 0.0665 µM. For the same compound, the CC50 – broadly, the concentration that lowers cell viability or growth by half – at 72 h in series [1] amounted to 74.3 µM. The Ka in series [5] turned out to be 3.81e+07 M⁻¹ s⁻¹. Besides, the EC50 – broadly, the midpoint of the concentration-response curve – in series [6] stood at 20.4 µM. Also, the selectivity ratio in series [2] stood at 4.
As to `CC(=O)[C@@H]1C[C@H](C(=O)O)[C@@]1(C)CC/C=C(\C)C(=O)O`, in series [3], the IC50 was 35.5 µM and the inhibition entry is “Dose-dependent effect”. For the same compound, the Kd in series [4] was determined as 0.0378 µM. In series [1], this compound returned a CC50 at 72 h of 75.3 µM. Also, in series [5], the Ka turned out to be 5.33e+06 M⁻¹ s⁻¹. In addition, in series [6], the concentration giving a half-maximal response (EC50) was 24.5 µM. Also, in series [2], the selectivity ratio is 3. In series [7], the Ratio is 33.
On to `CC(C)OC(=O)[C@H](C)NP(=O)(OC[C@H]1O[C@@H](n2ccc(=O)[nH]c2=O)[C@](C)(F)[C@@H]1O)Oc1ccccc1` (stereo not given in full), for which the CC50 at 72 h in series [1] is greater than 200 µM. Moreover, the concentration for a half-maximal effect (EC50) in series [6] worked out at 0.06 µM. Also, the selectivity ratio in series [2] is greater than 3120.
